From ChEMBL document CHEMBL3046067, “Synthesis of some novel 3,5-disubstituted 1,3,4-oxadiazole derivatives and anticancer activity on EAC animal model” (2011)
Activity calls are given as the source filed them. The rule behind the calls is not given here.

Tests used:
[1] = tested on: Mus musculus; assay: Antitumor activity against Mus musculus (mouse) EAC xenografted in Mus musculus Swiss albino (mouse) assessed as restoration of RBC count at 50 mg/kg, ip qd for 7 days; assay type: functional, organism-based; set-up: dose 50 mg/kg
[2] = tested on: Mus musculus; assay: Antitumor activity against Mus musculus (mouse) EAC xenografted in Mus musculus Swiss albino (mouse) assessed as increase in average life span at 50 mg/kg, ip qd for 7 days relative to control; assay type: functional; conditions: 168 h, route intraperitoneal, read-out: Survival
[3] = tested on: Mus musculus; assay: Antitumor activity against Mus musculus (mouse) EAC xenografted in Mus musculus Swiss albino (mouse) assessed as restoration of WBC count at 50 mg/kg, ip qd for 7 days; assay type: functional, organism-based; set-up: dose 50 mg/kg
[4] = Antitumor activity against Mus musculus (mouse) EAC xenografted in Mus musculus Swiss albino (mouse) assessed as inhibition of tumor formation at 50 mg/kg, ip qd for 7 days relative to control; assay type: functional; conditions: Ehrlich, 168 h, route intraperitoneal
[5] = Antitumor activity against Mus musculus (mouse) EAC xenografted in Mus musculus Swiss albino (mouse) assessed as non-viable cells at 50 mg/kg, ip qd for 7 days relative to control; assay type: functional, Ehrlich; conditions: route intraperitoneal
[6] = tested on: Mus musculus; assay: Antitumor activity against Mus musculus (mouse) EAC xenografted in Mus musculus Swiss albino (mouse) assessed as restoration of hemoglobin level at 50 mg/kg, ip qd for 7 days; assay type: functional, organism-based; set-up: dose 50 mg/kg
[7] = tested on: Mus musculus; assay: Antitumor activity against Mus musculus (mouse) EAC xenografted in Mus musculus Swiss albino (mouse) assessed as increase in median life span at 50 mg/kg, ip qd for 7 days relative to control; assay type: functional; conditions: 168 h, route intraperitoneal, read-out: Survival
[8] = Antitumor activity against Mus musculus (mouse) EAC xenografted in Mus musculus Swiss albino (mouse) assessed as viable cells at 50 mg/kg, ip qd for 7 days relative to control; assay type: functional, Ehrlich; conditions: route intraperitoneal
[9] = tested on: Mus musculus; assay: Antitumor activity against Mus musculus (mouse) EAC xenografted in Mus musculus Swiss albino (mouse) assessed as increase in average life span at 20 mg/kg, ip qd for 7 days relative to control; assay type: functional; conditions: 168 h, route intraperitoneal
[10] = Antitumor activity against Mus musculus (mouse) EAC xenografted in Mus musculus Swiss albino (mouse) assessed as viable cells at 20 mg/kg, ip qd for 7 days relative to control; assay type: functional, Ehrlich; conditions: route intraperitoneal
[11] = tested on: Mus musculus; assay: Antitumor activity against Mus musculus (mouse) EAC xenografted in Mus musculus Swiss albino (mouse) assessed as increase in median life span at 20 mg/kg, ip qd for 7 days relative to control; assay type: functional; conditions: 168 h, route intraperitoneal
[12] = Antitumor activity against Mus musculus (mouse) EAC xenografted in Mus musculus Swiss albino (mouse) assessed as non-viable cells at 20 mg/kg, ip qd for 7 days relative to control; assay type: functional, Ehrlich; conditions: route intraperitoneal

O=[N+]([O-])c1ccc(-c2nn(CNc3ccccn3)c(=S)o2)cc1
Activity [1]: Active
percent increase in average life span at 50 mg/kg [2]: 38.5%
Activity [3]: Active
inhibition in vivo at 50 mg/kg [4]: 60.8%
Activity [5]: 63.17%
Activity [6]: Active
Increase in median life span at 50 mg/kg [7]: 36.9%
Activity [8]: 36.83%

O=c1[nH]cc(F)c(=O)[nH]1 [FLUOROURACIL]
survival at 20 mg/kg [9]: 92.7%
Activity [10]: 14.83%
survival at 20 mg/kg [11]: 90.8%
Activity [12]: 85.17%

Oc1ccc(-c2nn(CNc3ccccn3)c(=S)o2)cc1
Activity [1]: Active
percent increase in average life span at 50 mg/kg [2]: 80.7%
Activity [3]: Active
inhibition in vivo at 50 mg/kg [4]: 73.9%
Activity [5]: 77.5%
Activity [6]: Active
Increase in median life span at 50 mg/kg [7]: 76.9%
Activity [8]: 22.5%

S=c1oc(-c2ccc(Cl)cc2Cl)nn1CNc1ccccn1
Activity [1]: Active
percent increase in average life span at 50 mg/kg [2]: 53.6%
Activity [3]: Active
inhibition in vivo at 50 mg/kg [4]: 52.2%
Activity [5]: 72.67%
Activity [6]: Active
Increase in median life span at 50 mg/kg [7]: 47.7%
Activity [8]: 27.33%

Cc1ccc(-c2nn(CNc3ccccn3)c(=S)o2)cc1
Activity [1]: Active
percent increase in average life span at 50 mg/kg [2]: 74%
Activity [3]: Active
inhibition in vivo at 50 mg/kg [4]: 56.5%
Activity [5]: 75.17%
Activity [6]: Active
Increase in median life span at 50 mg/kg [7]: 73.8%
Activity [8]: 24.83%

O=[N+]([O-])c1ccc(-c2nn(CNc3ccccc3)c(=S)o2)cc1
Activity [1]: Active
percent increase in average life span at 50 mg/kg [2]: 46.4%
Activity [3]: Active
inhibition in vivo at 50 mg/kg [4]: 56.5%
Activity [5]: 66.5%
Activity [6]: Active
Increase in median life span at 50 mg/kg [7]: 44.6%
Activity [8]: 33.5%
